Experimental data: ChEMBL document CHEMBL1150055, “New Diol Esters Isolated from Cultures of the Dinoflagellates Prorocentrum lima and Prorocentrum concavum” (J Nat Prod, 1992)
Activity calls are given as the source filed them. No cut-off for these calls is given here.

Legend:
[1] = Inhibition of PP2A
[2] = Inhibition of PP1

SMILES	Activity [1]	Activity [2]
C=C1[C@@H](O)[C@@H]2O[C@]3(CC[C@H](/C=C/[C@@H](C)[C@@H]4CC(C)=C[C@@]5(O[C@H](C[C@@](C)(O)C(=O)OC/C(C)=C/C=C/CO)CC[C@H]5O)O4)O3)CC[C@H]2O[C@@H]1[C@@H](O)C[C@H](C)[C@H]1O[C@@]2(CCCCO2)CC[C@H]1C	inactive	inactive
C=C1[C@@H](O)[C@@H]2O[C@]3(CC[C@H](/C=C/[C@@H](C)[C@@H]4CC(C)=C[C@@]5(O[C@H](C[C@@](C)(O)C(=O)OC/C(C)=C/C=C/CCO)CC[C@H]5O)O4)O3)CC[C@H]2O[C@@H]1[C@@H](O)C[C@H](C)[C@H]1O[C@@]2(CCCCO2)CC[C@H]1C	inactive	inactive
C=C1[C@@H](O)[C@@H]2O[C@]3(CC[C@H](/C=C/[C@@H](C)[C@@H]4CC(C)=C[C@@]5(O[C@H](C[C@@](C)(O)C(=O)OC)CC[C@H]5O)O4)O3)CC[C@H]2O[C@@H]1[C@@H](O)C[C@H](C)[C@H]1O[C@@]2(CCCCO2)CC[C@H]1C	inactive	inactive
